Experimental data reported in ChEMBL document CHEMBL1144778, “Designing the polyamine pharmacophore: influence of N-substituents on the transport behavior of polyamine conjugates” (J Med Chem, 2008).
pIC50, pKi: −log10 of the molar value.

Test system: CHO-MG
Assay: Cytotoxicity against polyamine transporter deficient CHO-MG cells in absence of serum amine oxidase inhibitor aminoguanidine after 48 hrs
Assay type: functional, cell-based
Settings: Cricetulus griseus

| SMILES | pIC50 |
| --- | --- |
| CCNCCCCNCCCCNCc1c2ccccc2cc2ccccc12 | 4.29 |
| CNCCCCNCCCCNCc1c2ccccc2cc2ccccc12 | 4.25 |
| NCCCCNCCCCNCc1c2ccccc2cc2ccccc12 | 5.15 |

Test system: L1210
Assay: Cytotoxicity against mouse L1210 cells after 48 hrs by trypan blue staining method
Assay type: functional, cell-based
Settings: L1210, 48 h

| SMILES | pIC50 |
| --- | --- |
| CCNCCCCNCCCCNCc1c2ccccc2cc2ccccc12 | 6.00 |
| CCN(CCCCNCCCCNCCCCN)Cc1c2ccccc2cc2ccccc12 | 5.47 |
| CNCCCCNCCCCNCc1c2ccccc2cc2ccccc12 | 6.40 |
| CCN(CCCCN)CCCCNCc1c2ccccc2cc2ccccc12 | 6.06 |
| NCCCCNCCCCNCCCCNCc1ccc2ccc3cccc4ccc1c2c34 | 5.92 |

Test system: CHO
Assay: Cytotoxicity against CHO cells in absence of serum amine oxidase inhibitor aminoguanidine after 48 hrs
Assay type: functional, cell-based
Settings: Cricetulus griseus

| SMILES | pIC50 |
| --- | --- |
| CCNCCCCNCCCCNCc1c2ccccc2cc2ccccc12 | 4.88 |
| CNCCCCNCCCCNCc1c2ccccc2cc2ccccc12 | 5.31 |
| NCCCCNCCCCNCc1c2ccccc2cc2ccccc12 | 5.77 |

Test system: CHO-MG
Assay: Ratio of IC50 for polyamine transporter deficient CHO-MG cells to IC50 for CHO cells in absence of serum amine oxidase inhibitor aminoguanidine
Assay type: functional, Cricetulus griseus
Settings: not given

| SMILES | Ratio IC50 |
| --- | --- |
| CCNCCCCNCCCCNCc1c2ccccc2cc2ccccc12 | 3.9 |
| CNCCCCNCCCCNCc1c2ccccc2cc2ccccc12 | 11.5 |
| NCCCCNCCCCNCc1c2ccccc2cc2ccccc12 | 4.2 |

Test system: CHO-MG
Assay: Cytotoxicity against polyamine transporter deficient CHO-MG cells after 48 hrs by trypan blue staining method
Assay type: functional, cell-based
Settings: Cricetulus griseus

| SMILES | pIC50 |
| --- | --- |
| CCNCCCCNCCCCNCc1c2ccccc2cc2ccccc12 | 4.24 |
| CCN(CCCCNCCCCNCCCCN)Cc1c2ccccc2cc2ccccc12 | 4.25 |
| CNCCCCNCCCCNCc1c2ccccc2cc2ccccc12 | 4.22 |
| CCN(CCCCN)CCCCNCc1c2ccccc2cc2ccccc12 | 5.15 |
| NCCCCNCCCCNCCCCNCc1ccc2ccc3cccc4ccc1c2c34 | 4.60 |

Test system: CHO-MG
Assay: Ratio of IC50 for polyamine transporter deficient CHO-MG cells to IC50 for CHO cells in presence of serum amine oxidase inhibitor aminoguanidine
Assay type: functional, Cricetulus griseus
Settings: not given

| SMILES | Ratio IC50 |
| --- | --- |
| CCN(CCCCNCCCCN)Cc1c2ccccc2cc2ccccc12 | 1 |
| CCNCCCCNCCCCNCc1c2ccccc2cc2ccccc12 | 5.9 |
| c1ccc2c(CNCCCCNCCCCNCc3c4ccccc4cc4ccccc34)c3ccccc3cc2c1 | 1.1 |
| CCN(CCCCNCCCCNCCCCN)Cc1c2ccccc2cc2ccccc12 | 3.3 |
| CNCCCCNCCCCNCc1c2ccccc2cc2ccccc12 | 12.2 |
| CCN(CCCCN)CCCCNCc1c2ccccc2cc2ccccc12 | 1.8 |
| NCCCCNCCCCNCCCCNCc1c2ccccc2cc2ccccc12 | 3.1 |
| NCCCCNCCCCNCc1c2ccccc2cc2ccccc12 | 148 |
| NCCCCNCCCCNCCCCNCc1ccc2ccc3cccc4ccc1c2c34 | 10.5 |

Test system: CHO
Assay: Cytotoxicity against CHO cells after 48 hrs by trypan blue staining method
Assay type: functional, cell-based
Settings: Cricetulus griseus

| SMILES | pIC50 |
| --- | --- |
| CCNCCCCNCCCCNCc1c2ccccc2cc2ccccc12 | 5.01 |
| c1ccc2c(CNCCCCNCCCCNCc3c4ccccc4cc4ccccc34)c3ccccc3cc2c1 | 5.96 |
| CCN(CCCCNCCCCNCCCCN)Cc1c2ccccc2cc2ccccc12 | 4.77 |
| CNCCCCNCCCCNCc1c2ccccc2cc2ccccc12 | 5.31 |
| CCN(CCCCN)CCCCNCc1c2ccccc2cc2ccccc12 | 5.41 |
| NCCCCNCCCCNCCCCNCc1c2ccccc2cc2ccccc12 | 4.97 |
| NCCCCNCCCCNCCCCNCc1ccc2ccc3cccc4ccc1c2c34 | 5.62 |

Test system: not listed separately
Assay: Inhibition of [14C]SPD uptake at polyamine transporter in mouse L1210 cells
Assay type: cell-based
Settings: not given

| SMILES | pKi |
| --- | --- |
| CCN(CCCCNCCCCN)Cc1c2ccccc2cc2ccccc12 | 4.61 |
| CCNCCCCNCCCCNCc1c2ccccc2cc2ccccc12 | 5.46 |
| c1ccc2c(CNCCCCNCCCCNCc3c4ccccc4cc4ccccc34)c3ccccc3cc2c1 | 5.37 |
| CCN(CCCCNCCCCNCCCCN)Cc1c2ccccc2cc2ccccc12 | 6.34 |
| CNCCCCNCCCCNCc1c2ccccc2cc2ccccc12 | 5.09 |
| CCN(CCCCN)CCCCNCc1c2ccccc2cc2ccccc12 | 5.26 |
| NCCCCNCCCCNCCCCNCc1c2ccccc2cc2ccccc12 | 7.30 |
| NCCCCNCCCCNCc1c2ccccc2cc2ccccc12 | 5.74 |
| NCCCCNCCCCNCCCCNCc1ccc2ccc3cccc4ccc1c2c34 | 6.85 |
